Consider one substance from patent publication US8496928B2, “Method for preventing and treating cardiovascular diseases with BRCA1” (priority 2008, dated 2013).

Format in all cases: cell-based, human
One assay concerns GADD45, p21 and p53. Kind of assay: Western blot of GADD45, p21 and p53 in HUVECs. The conditions noted are these: TNFα. On the procedure: In FIG. 25A cell cycle progression was assessed after adenoviral (ad-null or ad-BRCA1) infection of HUVECs and 24 hours of TNFα (20 ng/ml) treatment followed by Propidium Iodide staining coupled with flow cytometry. […] GAPDH was used as a loading control.
Western blot analysis was performed according to standard procedures. Proteins from whole cell lysates of HUVECs were resolved on SDS-polyacrylamide gels and transferred to nitrocellulose membranes (Bio-Rad). Membranes were probed with primary antibodies from Santa Cruz (BRCA1), Cell Signaling (p53, p21, Ser1177-phospho-eNOS, Akt, Ser473-phospho-Akt, cleaved caspase-3), Chemicon (GADD45a, GAPDH) and BD (eNOS). Immunoblots were incubated with the appropriate horseradish peroxidase-associated secondary antibodies before signals were visualized by chemiluminescence via the ECL detection system (GE Healthcare).
On the technique in general: Immunoblotting shows a protein as a band on a membrane.

Assay [1] has as its system HUVECs. Kind of assay: HUVEC apoptosis assays (Annexin V-FITC/PI flow cytometry, cleaved caspase-3, DNA fragmentation). The note with it: ad-null infected HUVECs, TNFα 20 ng/ml 24 hours. On the procedure: In FIG. 23A ad-null or ad-BRCA1 infected HUVECs were treated with TNFα (20 ng/ml) for 24 hours. Cells were harvested for Annexin V-FITC and Propidium Iodide staining followed by flow cytometry. Total apoptotic cells are shown as mean±SD (n=3 in triplicate, **p<0.01). In FIG. 23B, HUVECs were treated with either siBRCA1 (10 nM) or scrambled siRNA (10 nM) for 24 hours. BRCA1-silenced and control HUVECs were treated with TNFα (20 ng/ml), stained with Annexin V-FITC and Propidium Iodide, and analyzed by flow cytometry. The percentage of total apoptotic cells are presented as mean±SD (n=3 in triplicate, **p<0.01). […] Data was calculated as the percentage of total apoptotic cells and presented as mean±SD (n=3 in triplicate, **p<0.01).
FIG. 31 is a bar graph showing protection of HUVECs against doxorubicin-induced apoptosis by BRCA1 overexpression. […] Data was calculated as the percentage of total apoptotic cells and presented as mean±SD (n=3 in triplicate, *p<0.01 vs. Ad-null group, †p<0.01 vs. Ad-null+2 μM Dox group). […]
Human umbilical vein endothelial cells (HUVECs) were purchased from Cambrex and cultured in MCDB-131 complete medium (Cambrex Corporation). […] These concentrations were determined from pilot optimization studies. […]
Apoptotic and necrotic cell death were assessed in ad-BRCA1 and ad-null infected HUVECs by flow cytometry coupled with the BD Annexin V-FITC Apoptosis Detection Kit. […]

Assay [2] has as its system HUVECs. Kind of assay: Matrigel tube formation assay. The note with it: TNFα 20 ng/ml. The method, then: In FIG. 24A ad-null or ad-BRCA1 infected cells were trypsinized and seeded in the presence and absence of TNFα (20 ng/ml) on coated inserts and a colorimetric assay was performed after 24 hours. Migration was calculated as a percentage of ad-null controls. (n=4, **p<0.01). In FIG. 24B, ad-null or ad-BRCA1 infected HUVECs were seeded onto matrigel in the presence or absence of TNFα (20 ng/ml). Images were taken 5 hours after seeding (original magnification 20×). In FIG. 24C data was semi-quantitatively analyzed by counting tubular structures in four fields per group. Data is presented as mean±SD (n=3 in triplicate, *p<0.05, **p<0.01). HUVECs infected with ad-null or ad-BRCA1 were treated for 24 hours with TNFα (20 ng/ml). VCAM1 (FIG. 24D, FIG. 24E), ICAM1 (FIG. 24F, FIG. 24G) and E-selectin (FIG. 24H, FIG. 24I) protein and transcript expression were determined in cell extracts via western blots and real-time PCR, respectively. GAPDH was used as a loading control for western blots and as a housekeeping gene for real-time PCR. Data are expressed as mean±SD (n=3, **p<0.01).
HUVEC-associated angiogenesis was measured with the In Vitro Angiogenesis Assay Kit from Chemicon. […] Tube formation was quantified by counting the number of tubes, branching points and network of tubes in randomly captured microscopic fields and by scoring the values for each type of structure. […]

For the substance TNFα, the “protein levels of p53 and GADD45” value in the assay with GADD45, p21 and p53 is given as “no influence”. For the same substance, in the assay on GADD45, p21 and p53 (in the presence and absence of BRCA1 overexpression), the p21 protein levels result is recorded as “significantly elevate”. In addition, the apoptosis entry in the assay on HUVECs [1] is reported as “significant apoptosis”. Also, in the assay with HUVECs [2], the “capacity to form vessel-like tubular structures” value is reported as “reduced”.
